Earlier results on four compounds are cited in patent US20080253985A1, “Compositions for Lowering Serum Cholesterol and/or Triglycerides” (priority 2005, published 2008).

For data set [1] the following is noted: dose of 40 mg.
The conditions of data set [2]: hoFH patients; ezetimibe 10 mg/day added to atorvastatin or simvastatin 80 mg/day.
Setting [3] is: clinical studies, dosages of 80 mg/day or greater.

Read-outs that look alike come from different tables or passages of the source.

For the compound `O=C(NC1CCN(CCCCC2(C(=O)NCC(F)(F)F)c3ccccc3-c3ccccc32)CC1)c1ccccc1-c1ccc(C(F)(F)F)cc1` [BMS-201038, N-(2,2,2-Trifluorethyl)-9-[4-[4-[[[4′-(trifluoromethyl)[1,1′biphenyl]-2-Yl]carbonyl]amino]-1-piperidinyl]butyl]9H-fluorene-9-carboxamide], where the note is “patients treated with 25 mg/day”, the adverse events result is “gastrointestinal disturbances, abnormalities in liver function, and hepatic steatosis”.
As for `CC(C)c1c(C(=O)Nc2ccccc2)c(-c2ccccc2)c(-c2ccc(F)cc2)n1CCC(O)CC(O)CC(=O)O` (centres unmarked) [atorvastatin, 7-[2-(4-fluorophenyl)-5-(1-methylethyl)-3-phenyl-4-(phenylcarbamoyl)-1H-pyrrol-1-yl]-3,5-dihydroxy-heptanoic acid], the “patients achieving goal attainment, LDL <70 mg/dL” value in data set [1] is on record as 23%.
As for `O=C1[C@H](CC[C@H](O)c2ccc(F)cc2)[C@@H](c2ccc(O)cc2)N1c1ccc(F)cc1` [ezetimibe], the “total reduction of LDL-C levels” value in data set [2] is 27%.
Take `Cc1cc(C)c2c3ccccc3n(Cc3ccc([C@@H](C(=O)N[C@H](CO)c4ccccc4)C4CCCC4)cc3)c2n1` [implitapide, (2S)-2-cyclopentyl-2-[4-[(2,4-dimethyl-9H-pyrido[2,3-b]indol-9-yl)methyl]phenyl]-N-[(1S)-2-hydroxy-1-phenylethyl]ethanamide]: under setting [3], the adverse events result was “gastrointestinal disturbances, abnormalities in liver function, and hepatic steatosis”; the therapeutic efficacy result is “therapeutically effective”.
